Laboratory results published in US12291533B2, “Substituted fused pyrimidine compounds and uses thereof” (Northwestern University, priority 2017, dated 2025).

Molecular target: T1, glucocerebrosidase (Homo sapiens, UniProt P04062)
T1 sequence (P04062 40-536): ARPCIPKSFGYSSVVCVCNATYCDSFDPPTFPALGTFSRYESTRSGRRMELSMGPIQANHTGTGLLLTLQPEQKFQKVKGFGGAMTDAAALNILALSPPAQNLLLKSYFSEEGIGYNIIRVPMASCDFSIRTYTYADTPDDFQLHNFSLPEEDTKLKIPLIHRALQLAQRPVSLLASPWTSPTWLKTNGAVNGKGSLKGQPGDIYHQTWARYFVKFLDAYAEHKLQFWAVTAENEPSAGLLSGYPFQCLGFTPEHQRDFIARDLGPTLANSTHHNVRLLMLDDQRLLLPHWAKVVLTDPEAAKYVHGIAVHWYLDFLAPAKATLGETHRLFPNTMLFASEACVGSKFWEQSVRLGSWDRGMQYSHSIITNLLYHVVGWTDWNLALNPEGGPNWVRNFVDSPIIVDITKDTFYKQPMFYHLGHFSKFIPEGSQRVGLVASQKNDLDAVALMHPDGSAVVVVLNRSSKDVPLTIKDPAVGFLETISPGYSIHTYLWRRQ
Assay: Glucocerebrosidase activity assay with blue substrate (4MU-Glc)
Assay type: biochemical
Conditions: Table 2; additional compounds, tested as described in Example 2
Procedure: Example 2—Glucocerebrosidase Activity Assay with Blue Substrate
The compounds in DMSO solution 0.5 μL/well were transferred to a black 96-well plate (the final titration was 24 nM to 50 μM, 12 concentrations, 2× dilution). 33.5 μL enzyme solution (7.5 nM final concentration) was transferred to the wells. After 5 min of incubation at room temperature, the enzyme reaction was initiated by the addition of 33 μL/well blue substrate. Final concentration of the blue substrate (4MU-Glc) was 1.5 mM. The blue substrate reaction was terminated by the addition of 33 μL/well stop solution (1 M NaOH and 1 M glycine mixture, pH 10) after 30 min of incubation at 37° C. The fluorescence was then measured in the Biotek Synergy H1 multi-mode plate reader with Ex=365 nm and Em=440 nm.
Additional compounds were synthesized and tested for glucocerebrosidase modulatory activity as described in Example 1 and Example 2.

Compound	AC50 [µM]	Emax [%]
CCn1ncc2c(N3CC[C@H](Oc4ccccc4)C3)nc(-c3cccnc3)nc21 [Compound 156]	39.8	220
CCn1ncc2c(N3CC[C@@H](Oc4ccccc4)C3)nc(-c3cccnc3)nc21 [Compound 157]	22.4	580
CCn1ncc2c(N3CC[C@H](Oc4ccccc4)C3)nc(-c3cncc(C(F)(F)F)c3)nc21 [Compound 158]	39.8	163
CCn1ncc2c(N3CC[C@@H](Oc4ccccc4)C3)nc(-c3cncc(C(F)(F)F)c3)nc21 [Compound 159]	44.6	242
CCn1ncc2c(N3CC[C@H](Oc4ccccc4)C3)nc(-c3cncc(Cl)c3)nc21 [Compound 160]	28.2	130
CCn1ncc2c(N3CC[C@@H](Oc4ccccc4)C3)nc(-c3cncc(Cl)c3)nc21 [Compound 161]	39.8	190
CCn1ncc2c(N3CCC[C@H](Oc4ccccc4)C3)nc(-c3cccnc3)nc21 [Compound 163]	25.1	475
CCn1ncc2c(N3CCC[C@@H](Oc4ccccc4)C3)nc(-c3cccnc3)nc21 [Compound 164]	28.2	425
c1ccc(OC2CN(c3nc(-c4cccnc4)nc4ccccc34)C2)cc1 [Compound 165]	3.98	305
c1ccc(OC2CCN(c3nc(-c4cccnc4)nc4ccccc34)CC2)cc1 [Compound 166]	6.31	276
CN(CCOc1ccccc1)c1cc(N2CCC(O)CC2)nc(Cl)n1 [Compound 167]	28.2	250
CN(CCOc1ccccc1)c1cc(Cl)nc(-c2cccnc2)n1 [Compound 168]	4	360
Cc1cc(-c2nc(N(C)CCOc3ccccc3)c3ccccc3n2)ccn1 [Compound 169]	15.8	191
CN(CCOc1ccccc1)c1cc(N2CCC(O)CC2)nc(-c2cccnc2)n1 [Compound 170]	28.2	740
CN(CCOc1ccccc1)c1cc(N2CC[C@@H](O)C2)nc(-c2cccnc2)n1 [Compound 171]	5	280
CN(CCOc1ccccc1)c1cc(C2CC[C@H](O)C2)nc(-c2cccnc2)n1 (stereo partly drawn) [Compound 172]	8.9	525
CN(CCOc1ccccc1)c1cc(N2CC(O)C2)nc(-c2cccnc2)n1 [Compound 173]	2.5	260
CN(CCOc1ccccc1)c1cc(N2CCC(CO)CC2)nc(-c2cccnc2)n1 [Compound 174]	14.1	625
CCCCCCCCCN(C)c1nc(-c2cccnc2)nc2ccccc12 [Compound 179]	6.31	118
CN(CCOc1ccccc1)c1nc(-c2cccnc2)nc2cccnc12 [Compound 182]	5.01	225
CC(C)Cn1ncc2c(N(C)CCOc3ccccc3)nc(-c3cccnc3)nc21 [Compound 183]	2.5	340
CCn1ncc2c(N(C)CCOc3ccc(CNC(=O)CCCCCNC(=O)CCOCCOCCOCCOCCNC(=O)OC(C)(C)C)cc3)nc(-c3cccnc3)nc21 [Compound 184]	2.82	
CCCn1ncc2c(N(C)CCOc3ccccc3)nc(-c3cccnc3)nc21 [Compound 187]	0.8	325
